Peptide text beside a SMILES is read from it.
Key:
human V1 receptors [1] = molecular target: T1, human V1 receptors (Homo sapiens, UniProt P37288); conditions: cited from earlier work; for Ki: read-out: mean binding affinity (Ki) for human V1 receptors, human vascular smooth muscle cells
rat V1 receptors [2] = conditions: intracellular calcium mobilization; cited from earlier work
human V1 receptors [3] = molecular target: T1, human V1 receptors; conditions: intracellular calcium mobilization; cited from earlier work
human V1 receptors [4] = molecular target: T1, human V1 receptors; test: Functional assay, intracellular calcium mobilization; type: cell-based; conditions: compared with maximal effect of AVP
human V2 receptors [5] = molecular target: T2, human V2 receptors (Homo sapiens, UniProt P30518); test: Competitive binding assay, [3H]AVP, CHO-K1 cell membrane homogenates
T2 sequence (P30518 whole entry): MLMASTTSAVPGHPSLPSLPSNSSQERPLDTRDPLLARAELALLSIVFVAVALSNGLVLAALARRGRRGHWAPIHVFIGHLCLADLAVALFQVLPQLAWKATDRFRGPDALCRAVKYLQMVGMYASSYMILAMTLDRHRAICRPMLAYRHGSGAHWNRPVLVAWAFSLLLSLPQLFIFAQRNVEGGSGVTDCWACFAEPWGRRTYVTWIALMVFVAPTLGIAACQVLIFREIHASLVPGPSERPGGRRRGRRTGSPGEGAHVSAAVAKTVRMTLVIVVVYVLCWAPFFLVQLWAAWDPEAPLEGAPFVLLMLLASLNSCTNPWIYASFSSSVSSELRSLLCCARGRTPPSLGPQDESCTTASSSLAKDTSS

V1 = conditions: cited from earlier work; for EC50: read-out: EC50 for V1 activation, recombinant system, functional assay
human V1 receptors [6] = molecular target: T1, human V1 receptors; test: Competitive binding assay, [3H]AVP, CHO-S cell membrane homogenates; conditions: for affinity (selectivity) for V1 higher than for V2: this study
human V2 receptors [7] = molecular target: T2, human V2 receptors; test: Functional assay, cAMP production; type: cell-based; conditions: compared with maximal effect of AVP
V1 activation = conditions: rat model of portal hypertension, cited from earlier work
rat V1 receptors [8] = conditions: cited from earlier work

T1 sequence (P37288 whole entry): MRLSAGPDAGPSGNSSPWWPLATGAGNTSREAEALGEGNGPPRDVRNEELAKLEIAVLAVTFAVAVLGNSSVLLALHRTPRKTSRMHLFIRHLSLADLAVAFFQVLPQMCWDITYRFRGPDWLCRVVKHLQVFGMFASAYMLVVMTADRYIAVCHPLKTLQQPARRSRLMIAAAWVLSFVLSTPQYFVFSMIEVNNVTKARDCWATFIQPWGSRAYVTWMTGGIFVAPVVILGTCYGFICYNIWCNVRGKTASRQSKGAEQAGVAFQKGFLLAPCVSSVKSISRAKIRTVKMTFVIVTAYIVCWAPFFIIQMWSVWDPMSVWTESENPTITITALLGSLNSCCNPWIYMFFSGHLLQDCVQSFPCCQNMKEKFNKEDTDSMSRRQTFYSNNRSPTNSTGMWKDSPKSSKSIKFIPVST

## NCCCC[C@H](NC(=O)[C@@H]1CCCN1C(=O)[C@@H]1CSSC[C@H](N)C(=O)N[C@@H](Cc2ccc(O)cc2)C(=O)N[C@@H](Cc2ccccc2)C(=O)N[C@@H](CCC(N)=O)C(=O)N[C@@H](CC(N)=O)C(=O)N1)C(=O)NCC(N)=O [LVP, [Lys8]-vasopressin]
Human V1 receptors [1]
  Ki: 0.01 µM
Rat V1 receptors [2]
  mean maximal cell activation at rat V1 receptors: 100%
Human V1 receptors [3]
  mean maximal cell activation at human V1 receptors: 100%
Human V1 receptors [4]
  agonist type at V1 receptors: full agonist
Human V2 receptors [5]; versus AVP
  binding affinity less than that of AVP, V2 receptors: about 12 fold
V1
  EC50: 0.00093 µM
Human V1 receptors [6]
  affinity (selectivity) for V1 higher than for V2: approximately sixfold
Human V1 receptors [6]; versus AVP
  binding affinity less than that of AVP, V1 receptors: about twofold
Human V2 receptors [7]
  agonist type at V2 receptors: full agonist

## NCCCC[C@H](NC(=O)[C@@H]1CCCN1C(=O)[C@@H]1CSSC[C@H](NC(=O)CNC(=O)CNC(=O)CN)C(=O)N[C@@H](Cc2ccc(O)cc2)C(=O)N[C@@H](Cc2ccccc2)C(=O)N[C@@H](CCC(N)=O)C(=O)N[C@@H](CC(N)=O)C(=O)N1)C(=O)NCC(N)=O [Terlipressin, N^α-tryglycl-8-lysine-vasopressin] (HELM PEPTIDE1{G.G.G.C.Y.F.Q.N.C.P.K.G.[am]}$PEPTIDE1,PEPTIDE1,4:R3-9:R3$$$V2.0; bridges inferred)
Human V1 receptors [1]; Colson et al
  selectivity for V1 receptors higher than for V2 receptors: 1.9 fold
Human V1 receptors [1]
  Ki: 1.23 µM
Human V1 receptors [1]; versus LVP
  binding affinity less than that of LVP, human V1 receptors: about 120 fold
Rat V1 receptors [2]
  mean maximal cell activation at rat V1 receptors: 66%
Human V1 receptors [3]
  mean maximal cell activation at human V1 receptors: 48%
V1 activation
  mean potency for V1 activation in vasopressor tests: 9 IU×µmol^−1
V1 activation; vasopressor tests
  mean potency less than that of vasopressin: about 66 fold
Human V1 receptors [4]
  agonist type at V1 receptors: partial agonist
Human V2 receptors [5]; versus LVP
  binding affinity less than that of LVP, V2 receptors: about 700 fold
V1
  EC50: 0.148 µM
V1; versus LVP
  EC50 higher than that for LVP: about 150 fold
Human V1 receptors [6]
  affinity (selectivity) for V1 higher than for V2: approximately sixfold
Human V1 receptors [6]; versus LVP
  binding affinity less than that of LVP, V1 receptors: about 600 fold
Rat V1 receptors [8]
  difference in binding versus LVP at rat V1 receptors: ~700 fold
Human V2 receptors [7]
  agonist type at V2 receptors: full agonist

## vasopressin: vasopressin comparator in Bernadich et al rat vasopressor tests; probably AVP
V1 activation
  mean potency for V1 activation in vasopressor tests: 614 IU×µmol^−1
